Test results taken from patent publication US10662164B2, “Non-beta lactam antibiotics” (University of Notre Dame du Lac, priority 2014, dated 2020).
In brackets after ≈: the same amount, converted by molar mass. Read-outs that look alike come from different tables or passages of the source. Marks after values point to notes of the source that are not given here.

Columns and labels:
[1] = system: S. aureus ATCC 27660; assay: Mouse peritonitis model of infection; format: in vivo; conditions: for Mouse peritonitis (survived/total): iv at 20 mg/kg at 30 min and 7.5 h after infection, survival at 48 h
Procedure: Compounds 60b, 60c, 65b, 66b, 75b and 76b were evaluated in the mouse peritonitis model of infection (Table 2). We used the ICR out-bred strain of mice that provides a heterogeneous population, similar to the human situation, thus, ensuring the relevance of the antibacterial effect. This animal model of infection is widely used, it is easy to carry out, and the end points (death or survival) are rapidly assessed, making it less resource-intensive compared to other infection models. In addition, excellent correlation between MIC and ED50 has been shown for 14 β-lactam antibiotics using this model (Kratochwil et al., Biochem. Pharmacol. 2002, 64, 1355). The mouse peritonitis infection model continues to be an important model for evaluation of the efficacy of antibiotics against human pathogens. We use the iv route of administration in initial efficacy studies, as this allows us to test the efficacy without knowledge of the oral bioavailability of the lead. Evaluation was done at 20 mg/kg.
(§1) Female ICR mice (6-8 weeks old, ˜20-g body weight) were used for the PK and peritonitis studies. Animals were purchased from Harlan Laboratories, Inc. (Indianapolis, Ind., USA) and given Teklad 2019 Extruded Rodent Diet and water ad libitum. Mice were maintained in polycarbonate shoebox cages with ¼″ corncob (The Andersons Inc., Maumee, Ohio) and Alpha-dri (Sheperd Specialty Papers, Inc., Richland, Mich.) bedding under 12-h light/12-h dark cycle at 72±2° F.
The mouse peritonitis model was used with S. aureus ATCC 27660, as described previously (Tran et al., Am. J. Clin. Dermatol. 2015; doi 10.1007/S40257-015-0125-9). The final bacterial inocula contained 5×10^7 cfu/mL and 5% mucin (Sigma-Aldrich Chemical Co., St Louis, Mo., USA). Just prior to inoculation, bacteria at 10^8 cfu/mL were mixed 1:1 with 10% mucin. Mice (n=6 per group) were given 0.5 mL of the bacterial inocula intraperitoneally. Mice were given two iv doses of the compounds at 30 min and 7.5 h after infection by tail vein injection. […] Mice were monitored for 48 h, at which time the number of surviving mice were counted.
The effective dose that results in survival of 50% of the mice was determined using Probit analysis (XLSTAT, New York, N.Y.). Groups of six mice per dose level were evaluated in the mouse peritonitis infection model at iv doses of 2.5, 5, 7.5, 10, 15, and 20 mg/kg and after po doses at 2.5, 5, 10, 20, and 40 mg/kg. […]

[2] = system: E. faecium 119-39A (Van S); assay: MIC determination; format: cell-based; conditions: Enterococcus faecium
Source text: (§2) The ESKAPE organisms (E. faecium NCTC (ATCC 19734), S. aureus ATCC 29213, K. pneumonia ATCC 700603, A. baumannii ATCC 17961, P. aeruginosa ATCC 17853, E. aerogenes ATCC 35029) and E. coli ATCC 25922) in the initial screen, S. aureus ATCC 27660, S. epidermis ATCC 35547, S. haemolyticus ATCC 29970, S. oralis ATCC 9811, S. pyogenes ATCC 49399, B. cereus ATCC 13061, B. licheniformis ATCC 12759, and E. faecalis ATCC 29212 were purchased from the American Type Culture Collection (Manassas, Va., USA). S. aureus strains NRS100, NRS119, NRS120, VRS1, and VRS2 were obtained from the Network on Antimicrobial Resistance in Staphylococcus aureus (Chantilly, Va., USA). E. faecalis strains 201 and 99, and E. faecium strains 119-39A and 106 were collected from Wayne State University School of Medicine.
(§3) The procedure for MIC determination was the same as previously reported (Tran et al., Am. J. Clin. Dermatol. 2015; doi 10.1007/S40257-015-0125-9).

[3] = system: E. faecalis 201 (Van S); assay: MIC determination; format: cell-based; conditions: Enterococcus faecalis
Source text: as §2, §3

[4] = system: S. aureus ATCC 29213; assay: MIC determination; format: cell-based, Staphylococcus aureus; conditions: for MIC: Staphylococcus aureus
[5] = Fast pharmacokinetic (PK) studies; format: in vivo, mouse
Procedure: To rapidly ascertain the PK properties of the compounds, fast PK studies were conducted. These studies involve administration of the compounds using a limited number of animals (n=2 mice per time point) for a few time points. This allows us to rapidly compare the preliminary PK properties of the compounds, so that full PK studies are conducted only with the most promising compound(s). […] The alkyne substituted pyrazole 66b had the lowest clearance and the highest systemic exposure, as measured by area under the curve (AUC, Table 2).
as §1
For fast PK studies, the compounds were dissolved in 10% DMSO/25% Tween-80/65% water at a concentration of 5 mg/mL. The dosing formulations were sterilized by filtration through a 0.2 μm, 13 mm diameter PTFE membrane attached to an Acrodisc syringe filter (Pall Life Sciences, Ann Arbor, Mich., USA). […] Terminal blood was collected at 5 min, 40 min, 2 h, 4 h, and 8 h; blood was centrifuged at 1200 g for 10 min to harvest plasma.
Plasma ([…], aliquot) was mixed with 100 μL of acetonitrile containing internal standard (final concentration 8 μg/mL). After centrifugation at 10000 g for 10 min, the supernatant was analyzed by ultraperformance liquid chromatography (UPLC) with UV detection at 285 nm. A Waters Acquity UPLC System (Waters Corporation, Milford, Mass., USA), consisting of a binary pump, an autosampler, a column heater, and a photodiode array detector was used. An Acquity UPLC C18 1.7 μm, 2.1 mm i.d.×50 mm column was used. Elution was at 0.5 mL/min with 70% A/30% B for 2 min, followed by a 10-min linear gradient to 10% A/90% B, then 70% A/30% B for 2 min, where A=0.1% formic acid/water and B=0.1% formic acid/acetonitrile. Monitoring was by UV detection at 285 nm. Calibration curves for each compound were prepared in control plasma containing internal standard. The concentrations in the PK samples were obtained using peak area ratio to the internal standard and the calibration curve regression analysis parameters. The methods were linear from 0.01 to 100 μg/mL; coefficients of determination R^2 range from 0.98 to 0.99.
The area under the curve (AUC), clearance (CL), volume of distribution (Vd), and terminal half-life were calculated using Phoenix WinNonlin 6.3 (Certara LP, St Louis, Mo., USA) noncompartmental analysis using uniform weighing. Half-lives were estimated from the linear portion of the initial or terminal phase of the concentration-time data by linear regression, where the slope of the line was the rate constant k and t1/2=ln 2/k.

[6] = system: E. faecium NCTC 7171; assay: MIC determination; format: cell-based, Enterococcus faecium; conditions: Enterococcus faecium
[7] = Staphylococcus aureus, ATCC27660, iv, 2 doses given at 30 min and 7.5 h after infection, read-out: ED50
[8] = Staphylococcus aureus, ATCC27660, po, single dose given at 1 h after infection, read-out: ED50
[9] = vancomycin-susceptible clinical isolate, Tables 1 and 5, read-out: MIC
[10] = ATCC29213, Table 3.1 and SAR text, compounds of Schemes 2-4, read-out: S. aureus ATCC 29213 MIC
[11] = ATCC29213, quality-control, methicillin-susceptible strain, Tables 1 and 5, read-out: MIC
[12] = NCTC7171, Table 1, read-out: MIC
[13] = NCTC7171, Table 3.1, compounds of Schemes 2-4, read-out: E. faecium NCTC 7171 MIC
[14] = single iv dose at 20 mg/kg, mice

| SMILES | MIC [2, 9] | MIC [3, 9] | MIC [4, 10] | MIC [4, 11] | MIC [6, 12] | MIC [6, 13] | Mouse peritonitis (survived/total) [1] | AUC0-8 h [5, 14] | CL [5, 14] | further results |
| --- | --- | --- | --- | --- | --- | --- | --- | --- | --- | --- |
| Oc1ccc(-c2nc(-c3ccc(Oc4ccc(C(F)(F)F)cc4)cc3)no2)cc1 [Compound 1] | 1 µg/mL (≈ 2.51 µM) | 2 µg/mL (≈ 5.02 µM) | 1 µg/mL (≈ 2.51 µM) | 2 µg/mL (≈ 5.02 µM) | 2 µg/mL (≈ 5.02 µM) | 1 µg/mL (≈ 2.51 µM) |  |  |  | ED50 [1, 7]: 40 mg/kg; ED50 [1, 8]: 44 mg/kg; AUC(0-t) ([5]; ICR, mouse, plasma, compound 1 at 50 mg/kg iv, read-out: AUC0-8 h): 44200 ng·h/mL; CL ([5]; compound 1 at 50 mg/kg iv): 18.9^c mL/min/kg |
| FC(F)(F)c1ccc(Oc2ccc(-c3noc(-c4n[nH]cc4Cl)n3)cc2)cc1 [Compound 60b, 5-(4-Chloro-1H-pyrazol-3-yl)-3-(4-(4-(trifluoromethyl)phenoxy)phenyl)-1,2,4-oxadiazole] | > 128 µg/mL | > 128 µg/mL | 1 µg/mL (≈ 2.46 µM) |  | 16 µg/mL (≈ 39.3 µM) | 2 µg/mL (≈ 4.92 µM) | 4/6 | 910 µg·min/mL | 22.0 mL/min/kg |  |
| Fc1ccc(Oc2ccc(-c3noc(-c4n[nH]cc4Cl)n3)cc2)cc1 [Compound 60c, 5-(4-Chloro-1H-pyrazol-3-yl)-3-(4-(4-fluorophenoxy)phenyl)-1,2,4-oxadiazole] | > 128 µg/mL | > 128 µg/mL | 0.5 µg/mL (≈ 1.4 µM) | 1 µg/mL (≈ 2.8 µM) | 32 µg/mL (≈ 89.7 µM) | 8 µg/mL (≈ 22.4 µM) | 2/6 | 446 µg·min/mL | 44.9 mL/min/kg |  |
| CC(C)Nc1c[nH]nc1-c1nc(-c2ccc(Oc3ccc(C(F)(F)F)cc3)cc2)no1 [Compound 65b, N-Isopropyl-3-(3-(4-(4-(trifluoromethyl)phenoxy)phenyl)-1,2,4-oxadiazol-5-yl)-1H-pyrazol-4-amine] |  |  |  |  |  |  | 1/6 | 1313 µg·min/mL | 15.2 mL/min/kg | MIC [2]: > 128 µg/mL; MIC [3]: > 128 µg/mL; MIC ([4]; ATCC29213): 0.5 µg/mL (≈ 1.16 µM); MIC ([4]; ATCC29213, read-out: S. aureus ATCC 29213 MIC): 0.5 µg/mL (≈ 1.16 µM); MIC ([6]; NCTC7171): 32 µg/mL (≈ 74.5 µM); MIC ([6]; NCTC7171, read-out: E. faecium NCTC 7171 MIC): > 128 µg/mL |
| C#Cc1c[nH]nc1-c1nc(-c2ccc(Oc3ccc(C(F)(F)F)cc3)cc2)no1 [Compound 66b, 5-(4-Ethynyl-1H-pyrazol-3-yl)-3-(4-(4-(trifluoromethyl)phenoxy)phenyl)-1,2,4-oxadiazole] |  | > 128 µg/mL | 0.25 µg/mL (≈ 0.631 µM) |  |  | > 128 µg/mL | 2/6 | 8261 µg·min/mL | 2.4 mL/min/kg | S. aureus ATCC 29213 MIC ([4]; Table 3.1, compounds of Schemes 2-4): 0.25 µg/mL |
| FC(F)(F)c1ccc(Oc2ccc(-c3noc(-c4ccc5[nH]ccc5c4)n3)cc2)cc1 [Compound 75b, 5-(1H-Indol-5-yl)-3-(4-(4-(trifluoromethyl)phenoxy)phenyl)-1,2,4-oxadiazole] |  |  | 4 µg/mL (≈ 9.49 µM) | 2 µg/mL (≈ 4.75 µM) | 2 to 4 µg/mL (≈ 4.75 to 9.49 µM) | 2 µg/mL (≈ 4.75 µM) | 5/6 | 1283 µg·min/mL | 15.2 mL/min/kg | ED50 [1, 7]: 7.6 mg/kg; ED50 ([1]; Staphylococcus aureus, ATCC27660, po, 2 doses given at 30 min and 7.5 h after infection, read-out: ED50): 1.7 mg/kg; ED50 [1, 8]: 3.1 mg/kg; ED50 ([1]; iv, 2 doses given at 30 min and 7.5 h after infection): 7.6 mg/kg; ED50 ([1]; po, 2 doses given at 30 min and 7.5 h after infection): 1.7 mg/kg; ED50 ([1]; po, single dose given at 1 h after infection): 3.1 mg/kg; ED50, fold better than that of 1 ([1]; single po dose given at 1 h after infection): 14 fold |
| FC(F)(F)c1ccc(Oc2ccc(-c3noc(-c4c[nH]cn4)n3)cc2)cc1 [Compound 76b, 5-(1H-Imidazol-4-yl)-3-(4-(4-(trifluoromethyl)phenoxy)phenyl)-1,2,4-oxadiazole] |  |  | 2 µg/mL (≈ 5.37 µM) |  | 8 to 16 µg/mL (≈ 21.5 to 43 µM) | 4 µg/mL (≈ 10.7 µM) | 3/6 | 2054 µg·min/mL | 9.7 mL/min/kg |  |
